Test results as given in patent publication US10632106B2, “Methods of cancer treatment with 2-(1′H-Indole-3′-carbonyl)-thiazole-4-carboxylic acid methyl ester” (Ariagen, Inc., priority 2009, dated 2020).

System: U14 (mouse cervical cancer) homografts
Assay: U14 homograft (syngeneic) growth inhibition in ICR mice
Format: in vivo
Settings: ITE 200 mg/kg i.p. once daily
Procedure: All the procedures related to animal handling, care, and the treatment in the study were performed following guidelines of KeyGen Biotechn Co., Ltd. (Nanjing, China), a contract research organization we hired, based on the guidance of the Association for Assessment and Accreditation of Laboratory Animal Care (AAALAC). Animals were checked for any effects of tumor growth and drug treatment on normal behavior such as mobility, food and water consumption, body weight gain/loss (bodyweights were measured every two days), eye/hair matting, and any other abnormal effect. Death and observed clinical signs were recorded. Individual animals with a tumor volume exceeding 3,000 mm^3 or animals of a group with a mean tumor volume exceeding 2,000 mm^3 were euthanized. In addition, animals showing signs of severe distress and/or pain or losing the capability of accessing adequate food or water were humanely sacrificed.
Cell lines HCT116, Siha, MFC were cultured in DMEM medium (high glucose) supplemented with 10% fetal bovine serum (FBS), SW116 and T24 in RPMI-1640 medium with 10% FBS, M14 and A375 in DMEM medium (high glucose) with 10% calf serum (CS), SGC7901 and Ketr-3 in RPMI-1640 medium with 10% CS, and CFPAC-1 in IMDM medium with 10% FBS. All of the cells were cultured, in the presence of 100 U/ml penicillin and 100 μg/ml streptomycin, at 37° C. in an atmosphere of 5% CO2 in air. […] The cells growing in an exponential phase were harvested and counted for tumor inoculation. Cell lines 5180 and U14 were maintained in ascites (peritoneal cavity fluid) of mice and were harvested and counted for tumor inoculation. […]
Tumor volume was measured every two days in two dimensions using a caliper and the volume was calculated with a formula of: V=0.5 a×b^2, where a and b are the long and short diameter (in mm) of a tumor, respectively. […] The TGD was calculated as: TGD=T−C, where T was the time (in days) required for tumors in a drug treated group to reach a predetermined mean tumor volume and C the time (in days) in the control group to reach the same volume. […]

Compound: COC(=O)c1csc(C(=O)c2c[nH]c3ccccc23)n1 [ITE, 2-(1′H-indole-3′-carbonyl)-thiazole-4-carboxylic acid methyl ester]
- TGD (TGD at Vol. 2,000): 3 days
- TGI (%) (TGI at day 6, TGI=(1−ΔT/ΔC)×100%): 46%
- Weight Loss (end of therapy relative to beginning): 4%
